The record followed here is patent EP4810052A2, “HCRHR2 SELECTIVE POLYPEPTIDES” (Gubra A/S, priority 2023, dated 2026).

Where two headings read alike, the source gives them in different places. Starred links: 1 amine or outer side, 2 acyl side, 3 side chain; linkers in the order of their positions; H or OH if unused. Non-standard residues stand in square brackets, D forms with d. Residues, ends and D or L forms follow the SMILES beside them. Groups on a side chain read outwards from the residue. *: point of attachment. C20 diacid = O=C(O)CCCCCCCCCCCCCCCCCCC(=O)*; γGlu = O=C(O)[C@H](CCC(=O)[*:2])N[*:1]; NMeI = CC[C@H](C)[C@H](NC)C(=O)O; Nle = CCCC[C@H](N)C(=O)O; AEEA = NCCOCCOCC(=O)O; Aib = CC(C)(N)C(=O)O

For one assay, the target named is T1, hCRHR2 (Homo sapiens, UniProt Q13324).
T1 sequence (Q13324 1-411): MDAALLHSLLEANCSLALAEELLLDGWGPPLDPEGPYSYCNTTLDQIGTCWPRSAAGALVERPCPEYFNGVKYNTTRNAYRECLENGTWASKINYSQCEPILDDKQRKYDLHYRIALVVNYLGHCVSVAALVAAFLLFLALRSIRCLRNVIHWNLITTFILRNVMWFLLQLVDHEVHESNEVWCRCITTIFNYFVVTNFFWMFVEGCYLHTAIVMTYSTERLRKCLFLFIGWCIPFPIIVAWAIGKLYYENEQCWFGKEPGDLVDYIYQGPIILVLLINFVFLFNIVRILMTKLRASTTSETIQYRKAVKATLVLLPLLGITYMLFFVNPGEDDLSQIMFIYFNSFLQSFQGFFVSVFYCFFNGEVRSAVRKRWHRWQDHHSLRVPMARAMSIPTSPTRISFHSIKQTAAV
The assay can be described thus: HTRF cAMP assay, determination of hCRHR2 potency (peptide libraries 5 conc., purified peptides 11 conc.). It is filed as cell-based. The essentials:
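Potency was read as cAMP accumulation in a stable CHO-K1 line expressing human CRHR2, used in suspension right after thawing. Detection relied on energy transfer from antibody-bound cryptate to d2-cAMP.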

Another assay concerns the target T2, hCRHR1 (Homo sapiens, UniProt P34998).
T2 sequence (P34998 24-415): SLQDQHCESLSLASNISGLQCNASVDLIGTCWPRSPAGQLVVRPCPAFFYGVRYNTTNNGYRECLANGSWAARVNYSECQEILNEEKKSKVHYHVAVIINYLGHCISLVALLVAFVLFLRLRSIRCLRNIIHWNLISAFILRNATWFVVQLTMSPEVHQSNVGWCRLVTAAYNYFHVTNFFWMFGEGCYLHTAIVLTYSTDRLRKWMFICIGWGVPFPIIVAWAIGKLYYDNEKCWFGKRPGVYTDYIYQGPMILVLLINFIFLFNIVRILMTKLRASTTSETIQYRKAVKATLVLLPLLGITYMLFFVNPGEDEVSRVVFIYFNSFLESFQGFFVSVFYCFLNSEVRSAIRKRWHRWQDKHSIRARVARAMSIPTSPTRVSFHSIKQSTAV
The assay can be described thus: HTRF cAMP assay, determination of hCRHR1 potency (peptide libraries 5 conc., purified peptides 11 conc.). It is filed as cell-based. The essentials: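 CHO-K1 cells stably expressing human CRHR1, thawed from frozen stocks just before use, were stimulated in suspension with agonist peptides. cAMP was measured by HTRF competitive immunoassay (cryptate anti-cAMP antibody vs d2-cAMP).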

Where [1] appears, read: Table 3, matched molecular pairs X^38 L vs Nle, peptide library of Example 4, read-out: hCRHR2 pEC50 (converted).
The mark [2] stands for this setting: Table 3, matched molecular pairs X^38 L vs Nle, peptide library of Example 4, read-out: hCRHR1 pEC50 (converted).
Setting [3] is: library peptides, matched molecular pairs L vs Nle in position X^38, read-out: Potency hCRHR2 pEC50 (converted).
Setting [4] is: library peptides, matched molecular pairs L vs Nle in position X^38, read-out: Potency hCRHR1 pEC50 (converted).

In the case of `CC[C@H](C)[C@H](N)C(=O)N[C@H](C(=O)N[C@@H](CC(C)C)C(=O)N[C@@H](CO)C(=O)N[C@@H](CC(C)C)C(=O)N[C@@H](CC(=O)O)C(=O)N[C@H](C(=O)N1CCC[C@H]1C(=O)N[C@H](C(=O)NCC(=O)N[C@@H](CC(C)C)C(=O)N[C@@H](CC(C)C)C(=O)N[C@@H](CCC(N)=O)C(=O)N[C@H](C(=O)N[C@@H](CC(C)C)C(=O)N[C@@H](CC(C)C)C(=O)N[C@@H](CCC(=O)O)C(=O)N[C@@H](CCC(N)=O)C(=O)N[C@@H](C)C(=O)N[C@@H](CCCNC(=N)N)C(=O)N[C@@H](C)C(=O)N[C@@H](CCCNC(=N)N)C(=O)N[C@@H](C)C(=O)N[C@@H](CCC(N)=O)C(=O)N[C@@H](CCCNC(=N)N)C(=O)N[C@@H](CCC(=O)O)C(=O)N[C@@H](CCC(=O)O)C(=O)N[C@@H](C)C(=O)N[C@@H](CCCCNC(=O)COCCOCCNC(=O)COCCOCCNC(=O)CC[C@H](NC(=O)CC[C@H](NC(=O)CCCCCCCCCCCCCCCCCCC(=O)O)C(=O)O)C(=O)O)C(=O)N[C@H](C(=O)N[C@@H](CC(N)=O)C(=O)N[C@@H](C)C(=O)N[C@@H](CCC(=O)O)C(=O)N[C@H](C(=O)N[C@@H](CC(C)C)C(=O)N[C@@H](C)C(=O)N[C@@H](CCC(=O)O)C(=O)N[C@H](C(N)=O)C(C)C)[C@@H](C)CC)[C@@H](C)O)[C@@H](C)CC)[C@@H](C)CC)C(C)C)C(C)C` [SEQ ID NO: 33] (H-IVLSLDVPIGLLQILLEQARARAQREEAK([AEEA-AEEA-γGlu-γGlu-C20 diacid])TNAEILAEV-NH2), the results for the EC50 at hCRHR2 (setting [1]) and on hCRHR1 (setting [2]) were 1.26 nM and 126 µM, respectively.
`CC[C@H](C)[C@H](N)C(=O)N[C@H](C(=O)N[C@@H](CC(C)C)C(=O)N[C@@H](CO)C(=O)N[C@@H](CC(C)C)C(=O)N[C@@H](CC(=O)O)C(=O)N[C@H](C(=O)N1CCC[C@H]1C(=O)N[C@H](C(=O)NCC(=O)N[C@@H](CC(C)C)C(=O)N[C@@H](CC(C)C)C(=O)N[C@@H](CCC(N)=O)C(=O)N[C@H](C(=O)N[C@@H](CC(C)C)C(=O)N[C@@H](CC(C)C)C(=O)N[C@@H](CCC(=O)O)C(=O)N[C@@H](CCC(N)=O)C(=O)N[C@@H](C)C(=O)N[C@@H](CCCNC(=N)N)C(=O)N[C@@H](C)C(=O)N[C@@H](CCCNC(=N)N)C(=O)N[C@@H](C)C(=O)N[C@@H](CCC(N)=O)C(=O)N[C@@H](CCCNC(=N)N)C(=O)N[C@@H](CCC(=O)O)C(=O)N[C@@H](CCC(N)=O)C(=O)N[C@@H](C)C(=O)N[C@@H](CCCCNC(=O)COCCOCCNC(=O)COCCOCCNC(=O)CC[C@H](NC(=O)CC[C@H](NC(=O)CCCCCCCCCCCCCCCCCCC(=O)O)C(=O)O)C(=O)O)C(=O)N[C@H](C(=O)N[C@@H](CC(N)=O)C(=O)N[C@@H](C)C(=O)N[C@@H](CCC(=O)O)C(=O)N[C@H](C(=O)N[C@@H](CC(C)C)C(=O)N[C@@H](C)C(=O)N[C@@H](CCC(=O)O)C(=O)N[C@H](C(N)=O)[C@@H](C)CC)[C@@H](C)CC)[C@@H](C)O)[C@@H](C)CC)[C@@H](C)CC)C(C)C)C(C)C` [compound 64] (H-IVLSLDVPIGLLQILLEQARARAQREQAK([AEEA-AEEA-γGlu-γGlu-C20 diacid])TNAEILAEI-NH2): the EC50 on hCRHR2 (setting [3]) was 0.126 nM; at hCRHR1 (setting [4]), 25.1 µM.
As to `CC[C@H](C)[C@H](N)C(=O)N[C@H](C(=O)N[C@@H](CC(C)C)C(=O)N[C@@H](CO)C(=O)N[C@@H](CC(C)C)C(=O)N[C@@H](CC(=O)O)C(=O)N[C@H](C(=O)N1CCC[C@H]1C(=O)N[C@H](C(=O)NCC(=O)N[C@@H](CC(C)C)C(=O)N[C@@H](CC(C)C)C(=O)N[C@@H](CCC(N)=O)C(=O)N[C@H](C(=O)N[C@@H](CC(C)C)C(=O)N[C@@H](CC(C)C)C(=O)N[C@@H](CCC(=O)O)C(=O)N[C@@H](CCC(N)=O)C(=O)N[C@@H](C)C(=O)N[C@@H](CCCNC(=N)N)C(=O)N[C@@H](C)C(=O)N[C@@H](CCC(=O)O)C(=O)N[C@@H](C)C(=O)N[C@@H](C)C(=O)N[C@@H](CCCNC(=N)N)C(=O)N[C@@H](CCC(=O)O)C(=O)N[C@@H](CCC(N)=O)C(=O)N[C@@H](C)C(=O)N[C@@H](CCCCNC(=O)COCCOCCNC(=O)COCCOCCNC(=O)CC[C@H](NC(=O)CC[C@H](NC(=O)CCCCCCCCCCCCCCCCCCC(=O)O)C(=O)O)C(=O)O)C(=O)N[C@H](C(=O)N[C@@H](CC(N)=O)C(=O)N[C@@H](C)C(=O)N[C@@H](CCC(=O)O)C(=O)N[C@H](C(=O)N[C@@H](CC(C)C)C(=O)N[C@@H](C)C(=O)N[C@@H](CCC(=O)O)C(=O)N[C@H](C(N)=O)[C@@H](C)CC)[C@@H](C)CC)[C@@H](C)O)[C@@H](C)CC)[C@@H](C)CC)C(C)C)C(C)C` [SEQ ID NO: 23] (H-IVLSLDVPIGLLQILLEQARAEAAREQAK([AEEA-AEEA-γGlu-γGlu-C20 diacid])TNAEILAEI-NH2), the EC50 is 0.501 nM on hCRHR2 (setting [1]) and 39.8 µM on hCRHR1 (setting [2]).
For the compound `CCCC[C@H](NC(=O)[C@@H](NC(=O)[C@H](CCC(=O)O)NC(=O)[C@H](C)NC(=O)[C@H](CC(N)=O)NC(=O)[C@@H](NC(=O)[C@H](CCCCNC(=O)COCCOCCNC(=O)COCCOCCNC(=O)CC[C@H](NC(=O)CC[C@H](NC(=O)CCCCCCCCCCCCCCCCCCC(=O)O)C(=O)O)C(=O)O)NC(=O)[C@H](C)NC(=O)[C@H](CCC(N)=O)NC(=O)[C@H](CCC(=O)O)NC(=O)[C@H](CCCNC(=N)N)NC(=O)[C@H](CCC(N)=O)NC(=O)[C@H](C)NC(=O)[C@H](CCCNC(=N)N)NC(=O)[C@H](C)NC(=O)[C@H](CCCNC(=N)N)NC(=O)[C@H](C)NC(=O)[C@H](CCC(N)=O)NC(=O)[C@H](CCC(=O)O)NC(=O)[C@H](CC(C)C)NC(=O)[C@H](CC(C)C)NC(=O)[C@@H](NC(=O)[C@H](CCC(N)=O)NC(=O)[C@H](CC(C)C)NC(=O)[C@H](CC(C)C)NC(=O)CNC(=O)[C@@H](NC(=O)[C@@H]1CCCN1C(=O)[C@@H](NC(=O)[C@H](CC(=O)O)NC(=O)[C@H](CC(C)C)NC(=O)[C@H](CO)NC(=O)[C@H](CC(C)C)NC(=O)[C@@H](NC(=O)[C@@H](N)[C@@H](C)CC)C(C)C)C(C)C)[C@@H](C)CC)[C@@H](C)CC)[C@@H](C)O)[C@@H](C)CC)C(=O)N[C@@H](C)C(=O)N[C@@H](CCC(=O)O)C(=O)N[C@H](C(N)=O)C(C)C` [compound 57] (H-IVLSLDVPIGLLQILLEQARARAQREQAK([AEEA-AEEA-γGlu-γGlu-C20 diacid])TNAEI[Nle]AEV-NH2), the results for the EC50 at hCRHR2 (setting [3]) and at hCRHR1 (setting [4]) were 0.126 nM and 0.0631 µM, respectively.
Consider `CCCC[C@H](NC(=O)[C@@H](NC(=O)[C@H](CCC(=O)O)NC(=O)[C@H](C)NC(=O)[C@H](CC(N)=O)NC(=O)C(C)(C)NC(=O)[C@H](CCCCNC(=O)COCCOCCNC(=O)COCCOCCNC(=O)CC[C@H](NC(=O)CC[C@H](NC(=O)CCCCCCCCCCCCCCCCCCC(=O)O)C(=O)O)C(=O)O)NC(=O)[C@H](C)NC(=O)[C@H](CCC(N)=O)NC(=O)[C@H](CCC(=O)O)NC(=O)[C@H](CCCNC(=N)N)NC(=O)[C@H](C)NC(=O)[C@H](C)NC(=O)[C@H](CCCNC(=N)N)NC(=O)[C@H](C)NC(=O)[C@H](CCCNC(=N)N)NC(=O)[C@H](C)NC(=O)[C@H](CCC(N)=O)NC(=O)CNC(=O)[C@H](CC(C)C)NC(=O)[C@H](CC(C)C)NC(=O)[C@@H](NC(=O)[C@H](CCC(N)=O)NC(=O)[C@H](CC(C)C)NC(=O)[C@H](CC(C)C)NC(=O)CNC(=O)[C@@H](NC(=O)[C@@H]1CCCN1C(=O)[C@@H](NC(=O)[C@H](CC(=O)O)NC(=O)[C@H](CC(C)C)NC(=O)[C@H](CO)NC(=O)[C@H](CC(C)C)NC(=O)[C@@H](NC(=O)[C@@H](NC)[C@@H](C)CC)C(C)C)C(C)C)[C@@H](C)CC)[C@@H](C)CC)[C@@H](C)CC)C(=O)N[C@@H](C)C(=O)N[C@@H](CCC(=O)O)C(=O)N[C@H](C(N)=O)C(C)C` [compound 123] (H-[NMeI]VLSLDVPIGLLQILLGQARARAAREQAK([AEEA-AEEA-γGlu-γGlu-C20 diacid])[Aib]NAEI[Nle]AEV-NH2), for which the EC50 on hCRHR2 (Table 4, library peptides having X^38 = Nle, read-out: hCRHR2 pEC50 (converted)) was 0.00501 nM; on hCRHR1 (Table 4, library peptides having X^38 = Nle, read-out: hCRHR1 pEC50 (converted)) it was 0.794 µM.
